According to PubChem BioAssay (NCI):
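Interpolation was linear, between the two tested concentrations surrounding the appropriate level; five concentrations were tested over 48 hours in 96-well plates. GI50 marks 50% less growth. TGI denotes the concentration required for complete inhibition of growth.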

Columns and labels:
Assay in all cases: inhibition of tumour cell growth, NCI panel, 48 h
BT-549 breast = tested on: BT-549 breast
UO-31 renal = tested on: UO-31 renal
A498 renal = tested on: A498 renal
SF-539 CNS = tested on: SF-539 CNS
SK-OV-3 ovarian = tested on: SK-OV-3 ovarian
T-47D breast = tested on: T-47D breast
NCI-H522 lung = tested on: NCI-H522 lung
HOP-92 NSCLC = tested on: HOP-92 NSCLC
MDA-MB-435 = tested on: MDA-MB-435
OVCAR-4 ovarian = tested on: OVCAR-4 ovarian
NCI/ADR-RES ovarian = tested on: NCI/ADR-RES ovarian
RXF 393 renal = tested on: RXF 393 renal
SF-295 CNS = tested on: SF-295 CNS
HCC-2998 colon = tested on: HCC-2998 colon
HL-60(TB) leukemia = tested on: HL-60(TB) leukemia
SK-MEL-28 melanoma = tested on: SK-MEL-28 melanoma
A549 NSCLC = tested on: A549 NSCLC
OVCAR-8 ovarian = tested on: OVCAR-8 ovarian
UACC-62 melanoma = tested on: UACC-62 melanoma
EKVX NSCLC = tested on: EKVX NSCLC
SNB-19 CNS = tested on: SNB-19 CNS
HCT-15 colon = tested on: HCT-15 colon
M14 melanoma = tested on: M14 melanoma
HOP-62 NSCLC = tested on: HOP-62 NSCLC
SR leukemia = tested on: SR leukemia
UACC-257 melanoma = tested on: UACC-257 melanoma
MCF7 breast = tested on: MCF7 breast
SN12C renal = tested on: SN12C renal
MDA-MB-231 breast = tested on: MDA-MB-231 breast
SF-268 CNS = tested on: SF-268 CNS
HT29 colon = tested on: HT29 colon
SW-620 colon = tested on: SW-620 colon
MALME-3M melanoma = tested on: MALME-3M melanoma
KM12 colon = tested on: KM12 colon
PC-3 prostate = tested on: PC-3 prostate
786-0 renal = tested on: 786-0 renal
OVCAR-5 ovarian = tested on: OVCAR-5 ovarian
IGROV1 ovarian = tested on: IGROV1 ovarian
U251 CNS = tested on: U251 CNS
MOLT-4 leukemia = tested on: MOLT-4 leukemia
HCT-116 colon = tested on: HCT-116 colon
SK-MEL-2 melanoma = tested on: SK-MEL-2 melanoma
SNB-75 CNS = tested on: SNB-75 CNS
DU-145 prostate = tested on: DU-145 prostate
HS 578T breast = tested on: HS 578T breast
CCRF-CEM leukemia = tested on: CCRF-CEM leukemia
SK-MEL-5 melanoma = tested on: SK-MEL-5 melanoma
NCI-H226 lung = tested on: NCI-H226 lung
OVCAR-3 ovarian = tested on: OVCAR-3 ovarian
ACHN renal = tested on: ACHN renal
NCI-H23 lung = tested on: NCI-H23 lung
TK-10 renal = tested on: TK-10 renal
NCI-H460 lung = tested on: NCI-H460 lung
LOX IMVI melanoma = tested on: LOX IMVI melanoma

COc1cc(NC(=O)Nc2cnc(Nc3ccc(N4CCOCC4)cc3)nc2Oc2cccc(OC)c2)cc(OC)c1
GI50 (BT-549 breast): 1490 nM | TGI (BT-549 breast): 5740 nM | GI50 (UO-31 renal): 1300 nM | TGI (UO-31 renal): 6740 nM | GI50 (A498 renal): 1300 nM | TGI (A498 renal): 2970 nM | GI50 (SF-539 CNS): 884 nM | TGI (SF-539 CNS): 1750 nM | GI50 (SK-OV-3 ovarian): 2790 nM | TGI (SK-OV-3 ovarian): 11100 nM | GI50 (T-47D breast): 2140 nM | TGI (T-47D breast): > 50000 nM | GI50 (NCI-H522 lung): 1440 nM | TGI (NCI-H522 lung): 6250 nM | GI50 (HOP-92 NSCLC): 1140 nM | TGI (HOP-92 NSCLC): 3510 nM | GI50 (MDA-MB-435): 1990 nM | TGI (MDA-MB-435): 11500 nM | GI50 (OVCAR-4 ovarian): 1130 nM | TGI (OVCAR-4 ovarian): 2690 nM | GI50 (NCI/ADR-RES ovarian): 4040 nM | TGI (NCI/ADR-RES ovarian): > 50000 nM | GI50 (RXF 393 renal): 887 nM | TGI (RXF 393 renal): 1820 nM | GI50 (SF-295 CNS): 1190 nM | TGI (SF-295 CNS): 3610 nM | GI50 (HCC-2998 colon): 1320 nM | TGI (HCC-2998 colon): 3620 nM | GI50 (HL-60(TB) leukemia): 2760 nM | TGI (HL-60(TB) leukemia): > 50000 nM | GI50 (SK-MEL-28 melanoma): 1610 nM | TGI (SK-MEL-28 melanoma): 6210 nM | GI50 (A549 NSCLC): 1990 nM | TGI (A549 NSCLC): 6470 nM | GI50 (OVCAR-8 ovarian): 1310 nM | TGI (OVCAR-8 ovarian): 3190 nM | GI50 (UACC-62 melanoma): 1350 nM | TGI (UACC-62 melanoma): 4040 nM | GI50 (EKVX NSCLC): 2170 nM | TGI (EKVX NSCLC): 24500 nM | GI50 (SNB-19 CNS): 5730 nM | TGI (SNB-19 CNS): > 50000 nM | GI50 (HCT-15 colon): 5350 nM | TGI (HCT-15 colon): > 50000 nM | GI50 (M14 melanoma): 1850 nM | TGI (M14 melanoma): 9200 nM | GI50 (HOP-62 NSCLC): 1760 nM | TGI (HOP-62 NSCLC): 6900 nM | GI50 (SR leukemia): 2710 nM | TGI (SR leukemia): > 50000 nM | GI50 (UACC-257 melanoma): 3360 nM | TGI (UACC-257 melanoma): 16800 nM | GI50 (MCF7 breast): 1920 nM | TGI (MCF7 breast): 18800 nM | GI50 (SN12C renal): 1300 nM | TGI (SN12C renal): 3710 nM | GI50 (MDA-MB-231 breast): 1410 nM | TGI (MDA-MB-231 breast): 4700 nM | GI50 (SF-268 CNS): 2070 nM | TGI (SF-268 CNS): 12300 nM | GI50 (HT29 colon): 1100 nM | TGI (HT29 colon): 3150 nM | GI50 (SW-620 colon): 2990 nM | TGI (SW-620 colon): > 50000 nM | GI50 (MALME-3M melanoma): 1280 nM | TGI (MALME-3M melanoma): 3820 nM | GI50 (KM12 colon): 2190 nM | TGI (KM12 colon): 22500 nM | GI50 (PC-3 prostate): 3160 nM | TGI (PC-3 prostate): 23700 nM | GI50 (786-0 renal): 928 nM | TGI (786-0 renal): 1880 nM | GI50 (OVCAR-5 ovarian): 6490 nM | TGI (OVCAR-5 ovarian): 41600 nM | GI50 (IGROV1 ovarian): 1800 nM | TGI (IGROV1 ovarian): 7770 nM | GI50 (U251 CNS): 1630 nM | TGI (U251 CNS): 5050 nM | GI50 (MOLT-4 leukemia): 36800 nM | TGI (MOLT-4 leukemia): > 50000 nM | GI50 (HCT-116 colon): 1100 nM | TGI (HCT-116 colon): 2740 nM | GI50 (SK-MEL-2 melanoma): 1740 nM | TGI (SK-MEL-2 melanoma): 8670 nM | GI50 (SNB-75 CNS): 1100 nM | TGI (SNB-75 CNS): 4690 nM | GI50 (DU-145 prostate): 1730 nM | TGI (DU-145 prostate): 5820 nM | GI50 (HS 578T breast): 1970 nM | TGI (HS 578T breast): 20600 nM | GI50 (CCRF-CEM leukemia): > 50000 nM | TGI (CCRF-CEM leukemia): > 50000 nM | GI50 (SK-MEL-5 melanoma): 1130 nM | TGI (SK-MEL-5 melanoma): 2650 nM | GI50 (NCI-H226 lung): 1880 nM | TGI (NCI-H226 lung): 8480 nM | GI50 (OVCAR-3 ovarian): 1270 nM | TGI (OVCAR-3 ovarian): 3250 nM | GI50 (ACHN renal): 1610 nM | TGI (ACHN renal): 6840 nM | GI50 (NCI-H23 lung): 1820 nM | TGI (NCI-H23 lung): 11800 nM | GI50 (TK-10 renal): 1110 nM | TGI (TK-10 renal): 2850 nM | GI50 (NCI-H460 lung): 1120 nM | TGI (NCI-H460 lung): 2270 nM | GI50 (LOX IMVI melanoma): 1470 nM | TGI (LOX IMVI melanoma): 5590 nM
